In US11524934B2, “Phenylamine compounds” (PI INDUSTRIES LTD., priority 2017, dated 2022):

What was measured:
Septoria lycopersici = Septoria lycopersici (Leaf spot of tomato) in vitro test, radial growth on Potato Dextrose Agar; details: 168 h, read-out: control
Protocol: Septoria lycopersici (Leaf spot of tomato): Compounds were dissolved in 0.3% DMSO & then added to Potato Dextrose Agar medium just prior to dispensing it into Petri dishes. 5 ml medium with compound in the desired concentration was dispensed into 60 mm sterile petri-plates. After solidification each plate was seeded with 5 mm size mycelial disc taken form periphery of actively growing virulent culture plate. Plates were incubated in growth chambers at 25° C. temperature & 70% Relative Humidity for seven days and radial growth was measured.

Botrytis cinerea = Botrytis cinerea (Gray mold) in vitro test, radial growth on Potato Dextrose Agar; details: 168 h, read-out: control
Protocol: (§1) Compounds of present invention were assessed for activity against one or more of the following: Biological Test Examples, in vitro test
Botrytis cinerea (Gray mold): Compounds were dissolved in 0.3% DMSO & then added to Potato Dextrose Agar medium just prior to dispensing it into Petri dishes. 5 ml medium with compound in the desired concentration was dispensed into 60 mm sterile Petri-plates. After solidification each plate was seeded with 5 mm size mycelial disc taken form periphery of actively growing virulent culture plate. Plates were incubated in growth chambers at 22° C. temperature & 90% Relative Humidity for seven days and radial growth was measured.

Alternaria solani = Alternaria solani (early blight of tomato/potato) in vitro test, radial growth on Potato Dextrose Agar; details: 168 h, read-out: control
Protocol: as §1

Colletotrichum capsici = Colletotrichum capsici (anthracnose) in vitro test, radial growth on Potato Dextrose Agar; details: Colletotrichum truncatum, 168 h, read-out: control
Protocol: Colletotrichum capsici (anthracnose): Compounds were dissolved in 0.3% DMSO & then added to Potato Dextrose Agar medium just prior to dispensing it into Petri dishes. 5 ml medium with compound in the desired concentration was dispensed into 60 mm sterile petri-plates. After solidification each plate was seeded with 5 mm size mycelial disc taken form periphery of actively growing virulent culture plate. Plates were incubated in growth chambers at 25° C. temperature & 60% Relative Humidity for seven days and radial growth was measured.

Pyricularia oryzae = assay: microbe, parasite or virus in culture; assay type: cell-based; details: 168 h, read-out: control
Rhizoctonia solani = details: 168 h, read-out: control
Protocol: Rhizoctonia solani (Rice sheath blight/Potato black scurf): Compounds were dissolved in 0.3% DMSO & then added to Potato Dextrose Agar medium just prior to dispensing it into Petri dishes. 5 ml medium with compound in the desired concentration was dispensed into 60 mm sterile Petri-plates. After solidification each plate was seeded with 5 mm size mycelial disc taken form periphery of actively growing virulent culture plate. Plates were incubated in growth chambers at 25° C. temperature & 60% Relative Humidity for seven days and radial growth was measured.

Fusarium culmorum = Fusarium culmorum (Foot rot of cereals) in vitro test, radial growth on Potato Dextrose Agar; assay type: cell-based; details: 168 h, read-out: control
Phakopsora pachyrhizi = Phakopsora pachyrhizi test in soybean (in vivo on plants), preventive activity; details: preventive spray on soybean plants, inoculated one day after treatment, disease severity rated vs untreated check
Protocol: Example 8 (In Vivo on Plants): Phakopsora pachyrhizi Test in Soybean
Compounds were dissolved in 2% DMSO/Acetone & then mixed with water to the calibrated spray volume of 50 ml and poured into the spray bottles for further applications.
To test the preventive activity of compounds, healthy young soybean plants raised in the greenhouse were sprayed with active compound preparation at the stated application rates inside the spray cabinets using hallowcone nozzles. One day after treatment, the plants were inoculated with spore suspension containing 2.1×10^6 Phakopsora pachyrhizi inoculum. The inoculated plants were then kept in greenhouse chamber at 25° C. temperature & 90% Relative Humidity for disease expression.
A visual assessment of compound's performance was carried out by rating the disease severity (0-100% scale) on treated plants on 3, 7, 10 & 15 days after application. Efficacy (% control) of the compounds was calculated by comparing the disease rating in the treatment with the one of the untreated control. The sprayed plants were also assessed for compound's plant compatibility by recording symptoms like necrosis, chlorosis & stunting.

SMILES	inhibition of growth at 300 ppm (Septoria lycopersici) [%]	inhibition of growth at 300 ppm (Botrytis cinerea) [%]	inhibition of growth at 300 ppm (Alternaria solani) [%]	inhibition of growth at 300 ppm (Colletotrichum capsici) [%]	inhibition of growth at 300 ppm (Pyricularia oryzae) [%]	inhibition of growth at 300 ppm (Rhizoctonia solani) [%]	inhibition of growth at 300 ppm (Fusarium culmorum) [%]	pest or weed control at 500 ppm (Phakopsora pachyrhizi) [%]
CCN(C)C=Nc1cc(C)c(C(=O)COc2c(C)cccc2Br)cc1C [Compound 88, N′-(4-(2-(2-bromo-6-methylphenoxy)acetyl)-2,5-dimethylphenyl)-N-ethyl-N-methylformimidamide]	> 70	> 70	> 70	> 70	> 70	> 70	70	
CCN(C)C=Nc1cc(C)c(C(=O)CSc2c(F)cccc2F)cc1C [Compound 103, N′-(4-(2-((2,6-difluorophenyl)thio)acetyl)-2,5-dimethylphenyl)-N-ethyl-N-methylformimidamide]	> 70	> 70	> 70	> 70	> 70	> 70	70	
CCN(C)C=Nc1cc(C)c(C(=O)CSc2ccc(F)cc2F)cc1C [Compound 102, N′-(4-(2-((2,4-difluorophenyl)thio)acetyl)-2,5-dimethylphenyl)-N-ethyl-N-methylformimidamide]	> 70	> 70	> 70	> 70	> 70	> 70	70	
CCN(C)C=Nc1cc(C)c(C(=O)COc2cccc(C)c2)cc1C [Compound 12, N′-(2,5-dimethyl-4-(2-(m-tolyloxy)acetyl)phenyl)-N-ethyl-N-methylformimidamide]	> 70	> 70	> 70	> 70	> 70	> 70	70	> 90
CCN(C)C=Nc1cc(C)c(C(=O)COc2ccccc2)cc1C [Compound 2, N′-(2,5-dimethyl-4-(2-phenoxyacetyl)phenyl)-N-ethyl-N-methylformimidamide]	> 70	> 70	> 70	> 70	> 70	> 70	70	> 90
CCN(C)C=Nc1cc(C)c(C(=O)COc2cccc(Cl)c2)cc1C [Compound 13, N′-(4-(2-(3-chlorophenoxy)acetyl)-2,5-dimethylphenyl)-N-ethyl-N-methylformimidamide]	> 70	> 70	> 70	> 70	> 70	> 70	70	> 90
CCN(C)C=Nc1cc(C)c(C(=O)CN(C)c2ccc(Cl)cc2)cc1C [Compound 84, N′-(4-(N-(4-chlorophenyl)-N-methylglycyl)-2,5-dimethylphenyl)-N-ethyl-N-methylformimidamide]	> 70	> 70	> 70	> 70	> 70	> 70	70	
CCN(C)C=Nc1cc(C)c(C(=O)CSc2ccc(C)c(C)c2)cc1C [Compound 11, N′-(4-(2-((3,4-dimethylphenyl)thio)acetyl)-2,5-dimethylphenyl)-N-ethyl-N-methylformimidamide]	> 70	> 70	> 70	> 70	> 70	> 70	70	> 90
